One assay has as its target T1, STAT5b SH2 domain (Homo sapiens, UniProt P51692).
T1 construct: His; made in house
T1 sequence (P51692 1-787): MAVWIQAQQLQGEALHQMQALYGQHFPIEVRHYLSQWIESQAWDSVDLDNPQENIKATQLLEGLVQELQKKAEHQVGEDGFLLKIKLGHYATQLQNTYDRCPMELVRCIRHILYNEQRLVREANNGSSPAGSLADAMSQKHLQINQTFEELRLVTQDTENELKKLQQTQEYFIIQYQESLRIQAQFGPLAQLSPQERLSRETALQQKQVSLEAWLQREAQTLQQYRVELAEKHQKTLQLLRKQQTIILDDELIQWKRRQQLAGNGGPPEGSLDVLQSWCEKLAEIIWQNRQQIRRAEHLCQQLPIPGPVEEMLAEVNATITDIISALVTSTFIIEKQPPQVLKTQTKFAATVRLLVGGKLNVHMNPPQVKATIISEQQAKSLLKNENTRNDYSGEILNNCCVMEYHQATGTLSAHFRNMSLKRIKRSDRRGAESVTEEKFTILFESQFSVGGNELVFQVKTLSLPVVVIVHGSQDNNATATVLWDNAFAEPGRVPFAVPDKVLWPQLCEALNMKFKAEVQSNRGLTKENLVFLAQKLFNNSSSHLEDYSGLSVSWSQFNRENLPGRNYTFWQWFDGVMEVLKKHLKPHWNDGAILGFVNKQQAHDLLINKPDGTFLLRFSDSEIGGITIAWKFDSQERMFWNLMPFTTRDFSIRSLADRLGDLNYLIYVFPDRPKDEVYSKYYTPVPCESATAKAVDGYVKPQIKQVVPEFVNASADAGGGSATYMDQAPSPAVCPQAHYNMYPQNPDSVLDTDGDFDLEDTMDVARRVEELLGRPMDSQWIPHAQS
The experiment in a line: Fluorescence polarization (FP)-based competitive binding assay, wild-type STAT5b. The protocol:
(§1) Fluorescence polarization assays
(§2) The ability of test compounds to displace 5-carboxyfluorescein-GY(PO3H2)LVLDKW (final concentration: 10 nM) from the SH2 domain of STAT5a/b proteins was analyzed. Proteins […]
(§3) was applied in dilution series comprising the following concentrations: 0.024 – 200 µM […]
(§4) and 0.146 – 600 µM (STAT5b Arg566Glu), respectively. The assays were performed in buffer containing 10 mM Tris, 50 mM NaCl, 1 mM DTT, 1 mM EDTA and 0.1% (v/v) NP-40. Fosfosal was dissolved in DMSO. STAT5a/b proteins and fosfosal were incubated at room temperature for 1 h before adding peptide. Samples were transferred to 384-well microtiter plates and fluorescence polarization was read after a further 1 h incubation time. All measurements were performed in triplicate (n=3), except for STAT5b (n=6) and STAT5a Trp566Arg (n=4). Percent binding was calculated based on a logarithmic curve fit using OriginPro 8G software. IC50 values were converted to Ki values using the published equation.[4] […]
[2] N. Elumalai, A. Berg, K. Natarajan, A. Scharow, T. Berg, Angew. Chem. Int. Ed. 2015, […]
[3] M. Gräber, W. Janczyk, B. Sperl, N. Elumalai, C. Kozany, F. Hausch, T. A. Holak, T.
[4] Z. Nikolovska-Coleska, R. Wang, X. Fang, H. Pan, Y. Tomita, P. Li, P. P. Roller, K.
Krajewski, N. G. Saito, J. A. Stuckey, S. Wang, Anal. Biochem. 2004, 332, 261-273.

For the next assay, the target named is T2, STAT5b Arg566Glu (Homo sapiens, UniProt P51692, R566E).
T2 construct: His; made in house
T2 sequence (P51692 1-787 R566E): T1 sequence (P51692 1-787) with R566E
The experiment in a line: FP-based competitive binding assay, STAT5b Arg566Glu. How it is done: as §1, §2, §3, §4

Each structure is given as a SMILES string. Substitutions are numbered along the chain they refer to. Several values for one entry are separate records, joined by “and”; a condition that tells them apart may be missing. Equal entries are not always repeated.

For the compound `CC(C)C[C@H](NC(=O)[C@H](Cc1ccc(OP(=O)(O)O)cc1)NC(=O)CNC(=O)c1ccc2c(c1)C(=O)OC21c2ccc(O)cc2Oc2cc(O)ccc21)C(=O)N[C@H](C(=O)N[C@@H](CC(C)C)C(=O)N[C@@H](CC(=O)O)C(=O)N[C@@H](CCCCN)C(=O)N[C@@H](Cc1c[nH]c2ccccc12)C(=O)O)C(C)C` [5-carboxyfluorescein-GY(PO3H2)LVLDKW], the Kd on STAT5b SH2 domain (Kd, fluorescent tracer peptide binding to STAT5b) is 82 nM and 95 nM; at STAT5b Arg566Glu it was 2000 nM.
As to `O=C(O)c1ccccc1OP(=O)(O)O` [fosfosal, O‐phosphorylated salicylic acid], on STAT5b SH2 domain (Ki STAT5a versus Ki STAT5b), the “selectivity for STAT5b over STAT5a” value was “fivefold”. Also, the IC50 on STAT5b SH2 domain (wild-type STAT5b) is 59500 ± 3600 nM. Besides, the Ki on STAT5b SH2 domain (wild-type STAT5b, Ki calculated from IC50 with published equation, n=6) was 29300 ± 1800 nM. The “% inhibition at 600 μM” value on STAT5b Arg566Glu (STAT5b Arg566Glu, up to 600 μM) is recorded as “no inhibition”.

(Values after PMC7496286, “The Selectivity of Fosfosal for STAT5b over STAT5a is Mediated by Arg566 in the Linker Domain” (Chembiochem, 2020).)
